The data set can be described thus: Inhibition of micellar solubility of cholesterol assessed as cholesterol solubility at 10 g/L using [4-14C]cholesterol incubated at 37 degC for 1 hr by liquid scintillation counting method. Format: physicochemical. More on the design: scale not given: the % may be the effect or the level left.

`O=C(O[C@@H]1Cc2c(O)cc(O)cc2O[C@@H]1c1cc(O)c(O)c2c1[C@H]1C(=O)C(O)=C[C@@]1([C@H]1Oc3cc(O)cc(O)c3C[C@H]1OC(=O)c1cc(O)c(O)c(O)c1)O2)c1cc(O)c(O)c(O)c1`: the Activity came out at 1.4%. As for `O=C1C(O)=C[C@@]2([C@H]3Oc4cc(O)cc(O)c4C[C@H]3O)Oc3c(O)c(O)cc([C@H]4Oc5cc(O)cc(O)c5C[C@H]4O)c3[C@@H]12`, the Activity is 26.39%.
